Values of other authors as cited in PubChem BioAssay AID1259409 (Chemical Carcinogenesis Research Information System (CCRIS), 2018).
Where “and” joins values, the source holds several entries; their conditions need not be identical. Equal values may be shown once.

Tested on: rodent chemically induced tumor inhibition, incidence and multiplicity
Assay: CCRIS tumor inhibitor studies
Settings: Species: MOUSE

In the case of C[C@]12CC[C@]3(C1)[C@H](CC2=O)C[C@@H](OC(=O)c1ccccc1)[C@H]1[C@](C)(C(=O)O)CCC[C@@]13C, the “tumour outcome (control, treated, inhibition, significance)” value (Carcinogen: 7,12-DIMETHYLBENZ[A]ANTHRACENE, 57-97-6, Dose [Inhibitor]: 0, 162 NMOL 2/WK APPLIED SIMULTANEOUSLY WITH EACH PROMOTER DOSE FOR 18 WK (STUDY DURATION: 18 WK), Route [Inhibitor]: DERMAL, Strain/Sex: ICR/FEMALE, Target Tissue: Type of Lesion: SKIN: TUMOR, Dose [Carcinogen]: 100 UG IN 100 µL ACETONE ONCE, Promoter: 12-O-TETRADECANOYLPHORBOL-13-ACETATE, 16561-29-8) is listed as 90%, 50%, 44%, not significant.

In the case of CC(C)=C1C=C(C(C)C)C(O)CC1 (centres undefined), the “tumour outcome (control, treated, inhibition, significance)” value (Carcinogen: 7,12-DIMETHYLBENZ[A]ANTHRACENE, 57-97-6, Dose [Inhibitor]: 0, 12 NMOL PER REPEATED APPLICATION FOR 20 WK (STUDY DURATION: 20 WK), Route [Inhibitor]: DERMAL, Strain/Sex: CD-1/FEMALE, Target Tissue: Type of Lesion: SKIN: TUMOR, Dose [Carcinogen]: 100 UG ONCE, Promoter: OKADAIC ACID, 78111-17-8) is given as 87%, 33%, 62%, not calculated.

For N[C@@H](CCC(=O)N[C@@H](CS)C(=O)NCC(=O)O)C(=O)O, the “tumour outcome (control, treated, inhibition, significance)” value (Carcinogen: TRANS-5-AMINO-3-[2-(5-NITRO-2-FURYL)VINYL]-1,2,4-OXADIAZOLE;SQL8506, 28754-68-9, Carcinogen: TRANS-5-AMINO-3-[2-(5-NITRO-2-FURYL)VINYL]-1,2,4-OXADIAZOLE;SQL8506, 28754-68-9, Dose [Inhibitor]: 400 MG/KG 16 HR BEFORE THE 1ST CARCINOGEN DOSE FOLLOWED BY ADDITIONAL INJECTIONS IMMEDIATELY BEFORE EACH DOSE OF CARCINO, Route [Inhibitor]: INTRAPERITONEAL, Strain/Sex: CD-1/FEMALE, Target Tissue: Type of Lesion: HEMATOPOIETIC SYSTEM: MYELOID LEUKEMIA, Dose [Carcinogen]: 1 G/KG 2/D FOR 5 D EVERY 4 WK FOR 3 COURSES OF TREATMENT, Promoter: NONE USED) is given as 7/137 (5%), 2/35 (6%), -20%, not calculated, the “tumour outcome (control, treated, inhibition, significance)” value (Carcinogen: TRANS-5-AMINO-3-[2-(5-NITRO-2-FURYL)VINYL]-1,2,4-OXADIAZOLE;SQL8506, 28754-68-9, Carcinogen: TRANS-5-AMINO-3-[2-(5-NITRO-2-FURYL)VINYL]-1,2,4-OXADIAZOLE;SQL8506, 28754-68-9, Dose [Inhibitor]: 400 MG/KG 16 HR BEFORE THE 1ST CARCINOGEN DOSE FOLLOWED BY ADDITIONAL INJECTIONS IMMEDIATELY BEFORE EACH DOSE OF CARCINO, Route [Inhibitor]: INTRAPERITONEAL, Strain/Sex: CD-1/FEMALE, Target Tissue: Type of Lesion: LYMPHOID TISSUE: NONTHYMIC LYMPHOMA, Dose [Carcinogen]: 1 G/KG 2/D FOR 5 D EVERY 4 WK FOR 3 COURSES OF TREATMENT, Promoter: NONE USED) is given as 8/137 (6%), 3/35 (8%), -33%, not calculated and the “tumour outcome (control, treated, inhibition, significance)” value (Carcinogen: TRANS-5-AMINO-3-[2-(5-NITRO-2-FURYL)VINYL]-1,2,4-OXADIAZOLE;SQL8506, 28754-68-9, Carcinogen: TRANS-5-AMINO-3-[2-(5-NITRO-2-FURYL)VINYL]-1,2,4-OXADIAZOLE;SQL8506, 28754-68-9, Dose [Inhibitor]: 400 MG/KG 16 HR BEFORE THE 1ST CARCINOGEN DOSE FOLLOWED BY ADDITIONAL INJECTIONS IMMEDIATELY BEFORE EACH DOSE OF CARCINO, Route [Inhibitor]: INTRAPERITONEAL, Strain/Sex: CD-1/FEMALE, Target Tissue: Type of Lesion: LYMPHOID TISSUE: THYMIC LYMPHOMA, Dose [Carcinogen]: 1 G/KG 2/D FOR 5 D EVERY 4 WK FOR 3 COURSES OF TREATMENT, Promoter: NONE USED) is given as 22/137 (16%), 2/35 (6%), 62%, not calculated. The “tumour outcome (control, treated, inhibition, significance)” value (Carcinogen: TRANS-5-AMINO-3-[2-(5-NITRO-2-FURYL)VINYL]-1,2,4-OXADIAZOLE;SQL8506, 28754-68-9, Carcinogen: TRANS-5-AMINO-3-[2-(5-NITRO-2-FURYL)VINYL]-1,2,4-OXADIAZOLE;SQL8506, 28754-68-9, Dose [Inhibitor]: 400 MG/KG 16 HR BEFORE THE 1ST CARCINOGEN DOSE FOLLOWED BY ADDITIONAL INJECTIONS IMMEDIATELY BEFORE EACH DOSE OF CARCINO, Route [Inhibitor]: INTRAPERITONEAL, Strain/Sex: CD-1/FEMALE, Target Tissue: Type of Lesion: STOMACH: SQUAMOUS CARCINOMA, Dose [Carcinogen]: 1 G/KG 2/D FOR 5 D EVERY 4 WK FOR 3 COURSES OF TREATMENT, Promoter: NONE USED) was 60/137 (44%), 12/35 (34%), 23%, not calculated.

For CC/C=C\C/C=C\C/C=C\CCCCCCCC(=O)O, the “tumour outcome (control, treated, inhibition, significance)” value (Carcinogen: 7,12-DIMETHYLBENZ[A]ANTHRACENE, 57-97-6, Dose [Inhibitor]: 0, 16 NMOL IN 0.1 ML ACETONE 2/WK FOR 20 WK APPLIED 40 MIN PRIOR TO EACH PROMOTER DOSE (STUDY DURATION: 21 WK), Route [Inhibitor]: DERMAL, Strain/Sex: ICR/FEMALE, Target Tissue: Type of Lesion: SKIN: TUMOR, Dose [Carcinogen]: 0.19 UMOL IN 0.1 ML ACETONE ONCE, Promoter: 12-O-TETRADECANOYLPHORBOL-13-ACETATE, 16561-29-8) is given as 87%, 80%, 8%, not significant and the “tumour outcome (control, treated, inhibition, significance)” value (Carcinogen: 7,12-DIMETHYLBENZ[A]ANTHRACENE, 57-97-6, Dose [Inhibitor]: 0, 160 NMOL IN 0.1 ML ACETONE 2/WK FOR 20 WK APPLIED 40 MIN PRIOR TO EACH PROMOTER DOSE (STUDY DURATION: 21 WK), Route [Inhibitor]: DERMAL, Strain/Sex: ICR/FEMALE, Target Tissue: Type of Lesion: SKIN: TUMOR, Dose [Carcinogen]: 0.19 UMOL IN 0.1 ML ACETONE ONCE, Promoter: 12-O-TETRADECANOYLPHORBOL-13-ACETATE, 16561-29-8) is given as 87%, 47%, 46%, p<0.005.

In the case of NC(=O)NO, the “tumour outcome (control, treated, inhibition, significance)” value (Carcinogen: 7,12-DIMETHYLBENZ[A]ANTHRACENE, 57-97-6, Dose [Inhibitor]: 0, 0.5 MG/G BW IN 0.9% SALINE ONCE 1 HR PRIOR TO FIRST PROMOTER DOSE (STUDY DURATION: 22 WK), Route [Inhibitor]: INTRAPERITONEAL, Strain/Sex: NMRI/FEMALE, Target Tissue: Type of Lesion: SKIN: PAPILLOMA, Dose [Carcinogen]: 50 UG/G BW IN SESAME OIL) is given as 95%, 79%, 17%, not significant, the “tumour outcome (control, treated, inhibition, significance)” value (Carcinogen: 7,12-DIMETHYLBENZ[A]ANTHRACENE, 57-97-6, Dose [Inhibitor]: 0, 0.5 MG/G BW IN 0.9% SALINE ONCE 6 HR POST FIRST PROMOTER DOSE (STUDY DURATION: 22 WK), Route [Inhibitor]: INTRAPERITONEAL, Strain/Sex: NMRI/FEMALE, Target Tissue: Type of Lesion: SKIN: PAPILLOMA, Dose [Carcinogen]: 50 UG/G BW IN SESAME OIL) is given as 95%, 65%, 32%, not calculated and the “tumour outcome (control, treated, inhibition, significance)” value (Carcinogen: 7,12-DIMETHYLBENZ[A]ANTHRACENE, 57-97-6, Dose [Inhibitor]: 0, 0.5 MG/G BW IN 0.9% SALINE ONCE 12 HR POST FIRST PROMOTER DOSE (STUDY DURATION: 22 WK), Route [Inhibitor]: INTRAPERITONEAL, Strain/Sex: NMRI/FEMALE, Target Tissue: Type of Lesion: SKIN: PAPILLOMA, Dose [Carcinogen]: 50 UG/G BW IN SESAME OIL) is given as 95%, 60%, 37%, not calculated and 95%, 59%, 38%, not calculated. The “tumour outcome (control, treated, inhibition, significance)” value (Carcinogen: 7,12-DIMETHYLBENZ[A]ANTHRACENE, 57-97-6, Dose [Inhibitor]: 0, 0.5 MG/G BW IN 0.9% SALINE ONCE 18 HR POST FIRST PROMOTER DOSE (STUDY DURATION: 22 WK), Route [Inhibitor]: INTRAPERITONEAL, Strain/Sex: NMRI/FEMALE, Target Tissue: Type of Lesion: SKIN: PAPILLOMA, Dose [Carcinogen]: 50 UG/G BW IN SESAME OIL) was 95%, 33%, 65%, not calculated and 95%, 30%, 68%, not calculated and 93%, 33%, 65%, not calculated, the “tumour outcome (control, treated, inhibition, significance)” value (Carcinogen: 7,12-DIMETHYLBENZ[A]ANTHRACENE, 57-97-6, Dose [Inhibitor]: 0, 0.5 MG/G BW IN 0.9% SALINE ONCE 24 HR POST FIRST PROMOTER DOSE (STUDY DURATION: 22 WK), Route [Inhibitor]: INTRAPERITONEAL, Strain/Sex: NMRI/FEMALE, Target Tissue: Type of Lesion: SKIN: PAPILLOMA, Dose [Carcinogen]: 50 UG/G BW IN SESAME OIL) was 95%, 39%, 59%, not calculated and 95%, 45%, 53%, not calculated and the “tumour outcome (control, treated, inhibition, significance)” value (Carcinogen: 7,12-DIMETHYLBENZ[A]ANTHRACENE, 57-97-6, Dose [Inhibitor]: 0, 0.5 MG/G BW IN 0.9% SALINE ONCE 48 HR POST FIRST PROMOTER DOSE (STUDY DURATION: 22 WK), Route [Inhibitor]: INTRAPERITONEAL, Strain/Sex: NMRI/FEMALE, Target Tissue: Type of Lesion: SKIN: PAPILLOMA, Dose [Carcinogen]: 50 UG/G BW IN SESAME OIL) was 95%, 94%, 1%, not significant.
